# What was measured:
# [1] = biological target: T1, human GPR84 (FLAG-hGPR84-eYFP) (Homo sapiens, UniProt Q9NQS5); test: [35S]GTPγS binding, membranes of cells expressing FLAG-hGPR84-eYFP; assay type: biochemical
# T1 construct: expressed in transfected cells
# Protocol: (§1) Membranes were generated from Flp-In T-REx HEK293 cells treated with 100 ng/mL doxycycline to induce expression of the receptor construct of interest. Cells were washed with ice-cold phosphate-buffered saline, removed from dishes by scraping and centrifuged at 3000 rpm for 5 min at 4 °C. Pellets were resuspended in TE buffer (10 mM Tris-HCl, 0.1 mM EDTA; pH 7.5) containing a protease inhibitor mixture (Roche Applied Science, West Sussex, UK) and homogenized with a 5 ml hand-held homogenizer. This material was centrifuged at 1500 rpm for 5 min at 4 °C and the supernatant was further centrifuged at 50000 rpm for 45 min at 4 °C. The resulting pellet was resuspended in TE buffer and protein content was assessed using a BCA protein assay kit (Pierce, Fisher Scientific, Loughborough, UK).
# (§2) The reaction was then initiated with addition of [^35S]GTPγS (50 nCi per tube), and the reaction was terminated after 45 minutes incubation at 30 °C by rapid filtration through GF/C glass filters using a 24-well Brandel cell harvester (Alpha Biotech, Glasgow, UK). […] Dried filters were added to 3 mL of Ultima Gold^TM XR (PerkinElmer Life Sciences, Beaconsfield, UK) and [^35S]GTPγS binding was determined by liquid scintillation spectrometry.
# All data are presented as means ± SEM of at least three independent experiments. Data analysis and curve fitting was carried out using the GraphPad Prism software package version 5.0b (GraphPad, San Diego). […] In case of inhibition experiments with antagonists an equivalent analysis was followed to fit an inverse sigmoidal curve. To perform the statistical analysis of curve parameters, data from multiple experiments were fitted independently and resulting curve fit values were analysed with indicated tests. For radioligand binding data, saturation binding curves were generated by fitting the specific binding, which was obtained by subtracting non-specific from total binding, to a one site specific binding model that allows calculation of Kd values for the radioligand at wild type and mutant receptors. To determine affinity of unlabelled ligands, data obtained in displacement assays were fit to an inverse three parameter sigmoidal curve constrained by radioligand affinity and concentration to allow for Ki calculation.
# [2] = test system: GPR84-Gαi2 fusion protein; test: [35S]GTPγS binding, membranes expressing GPR84-Gαi2 fusion protein; assay type: biochemical, human; settings: for direct agonism of GPR84, [35S]GTPγS binding: DIM analogs; for allosteric effect on concentration-response curves of orthosteric agonists incl. compound-1: increasing concentrations of analog
# Excerpt: The only previous study[3] designed to explore the mode of binding of ligands to GPR84 employed a fusion protein[31],[32] in which the G protein Gαi1 was linked in-frame to the C-terminal tail of GPR84. […] These studies indicate that following pertussis toxin treatment of cells expressing the GPR84-Cys^352Ile Gαi2 fusion protein all agonist-induced binding of [^35S]GTPγS reflects incorporation of nucleotide into the receptor-linked G protein α subunit.
# as §1
# (§3) Initially, 5 μg of generated membrane protein was pre-incubated for 15 min at 25 °C in assay buffer (20 mM HEPES, 5 mM MgCl2; 160 mM NaCl; 1 μM GDP; 0.05% fatty acid-free bovine serum albumin; pH 7.5) containing the indicated ligand concentrations. […] The reaction was then initiated with addition of [^35S]GTPγS (50 nCi per tube), and the reaction was terminated after 45 minutes incubation at 30 °C by rapid filtration through GF/C glass filters using a 24-well Brandel cell harvester (Alpha Biotech, Glasgow, UK). Unbound radioligand was removed from filters by three washes with ice-cold phosphate buffered saline (pH 7.4) and filters were dried for 2–3 h at room temperature. Dried filters were added to 3 mL of Ultima Gold^TM XR (PerkinElmer Life Sciences, Beaconsfield, UK) and [^35S]GTPγS binding was determined by liquid scintillation spectrometry.
# [3] = biological target: GPR84-Cys^352Ile Gαi2 fusion protein (Homo sapiens, UniProt Q9NQS5); test: [35S]GTPγS binding, membranes expressing pertussis toxin-resistant GPR84-Cys352Ile Gαi2 fusion; operational model of allosteric modulation; assay type: biochemical; settings: for measured potency compared between GPR84-Gαi2 and GPR84-Cys352Ile Gαi2 fusion constructs: [35S]GTPγS binding
# Protocol: The only previous study[3] designed to explore the mode of binding of ligands to GPR84 employed a fusion protein[31],[32] in which the G protein Gαi1 was linked in-frame to the C-terminal tail of GPR84.
# as §1, §2
# To quantify the extent of allosteric interaction between pairs of ligands, data were analysed using an operational model of allosteric modulation described previously. The general version of this model can be depicted by the following equation: E=Em(τA[A](KB+αβ[B])+τB[B]KA)^n/([A]KB+KAKB+[B]KA+α[A][B])^n+(τA[A](KB+αβ[B])+τB[B]KA)^n where, E is the pharmacological effect, [A] and [B] are the orthosteric and allosteric compound concentrations at equilibrium, respectively; KA and KB are the equilibrium dissociation constants of the orthosteric and allosteric ligands respectively, denoting the binding affinities of the two ligands to the receptor; α is the binding cooperativity factor denoting the magnitude and direction of the allosteric effect on binding affinity of the orthosteric agonist to the receptor, β is the activation cooperativity factor representing the measure of the allosteric effect on orthosteric efficacy. τA and τB represent the intrinsic activity of the orthosteric and allosteric ligand, respectively. Em is the maximal possible system response and n denotes the slope factor of the transducer function. In case of global fitting of the allosterism data through this equation, Em and n values were always constrained and other parameters (KA, KB,τA, τB, α, β) were estimated.
# [4] = biological target: T2, Arg^172Ala GPR84-Cys^352Ile Gαi2 fusion protein (Homo sapiens, UniProt Q9NQS5, R172A); test: [35S]GTPγS binding, Arg172Ala mutant fusion protein; assay type: biochemical
# T2 construct: Cys352Ile Gαi2 (fusion partner, same polypeptide); expressed in transfected cells; host or cells: membranes of Flp-In T-REx 293 cells, doxycycline-induced
# Excerpt: To try to identify how a MCFA might interact with GPR84 we turned to homology modelling studies. Although GPR84 is not closely related to the other GPCRs that respond to either short chain (FFA2, FFA3) or long chain (FFA1, FFA4) fatty acids[8],[9], in each of the other cases the carboxylate of the fatty acid is co-ordinated by one or more arginine residues located at or near the extracellular surface[12]–[14]. […] As we have highlighted recently[9] GPR84 and the β2-adrenoceptor are only distantly related whilst, of the currently available atomic level GPCR structures, the orexin OX1 receptor[34] has highest overall sequence identity (31%) with GPR84. We, therefore, generated and employed a new homology model of GPR84 based on the transmembrane domain architecture of the OX1 receptor (Fig. 6). However, because ECL2 of GPR84 is very similar in sequence to that of rhodopsin (Fig. 6a), with 43% residue identity over this region, we incorporated this knowledge into the modelling process. In the resulting hybrid model (Fig. 6a) Arg^172 within ECL2 is pointing into the potential binding cavity within the helical bundle. This was not the case when Nikaido et al.,[3] employed the β2-adrenoceptor-based model, probably because the ECL2 sequences of the β2-adrenoceptor and GPR84 have no relatedness. […] To assess this we mutated Arg^172 to Ala within the setting of the GPR84-Cys^352Ile Gαi2 fusion protein. […] Equivalent results were obtained in studies in which the Arg^172Ala mutation was introduced into the FLAG-hGPR84-eYFP construct (Fig. 7b).
# FLAG-humanGPR84-Gαi2 fusion proteins were constructed by replacing eYFP within the FLAG-humanGPR84-eYFP-pcDNA5/FRT/TO construct with sequence corresponding to Gαi2 or Cys^352Ile Gαi2 using NotI and XhoI restriction enzymes. Site-directed mutagenesis to generate point mutants of GPR84 was performed according to the QuikChange method (Stratagene, Cheshire, UK). The identity of all constructs was verified by nucleotide sequencing.
# as §3
# [5] = biological target: T3, Arg^172Lys GPR84-Cys^352Ile Gαi2 fusion protein (Homo sapiens, UniProt Q9NQS5, R172K); test: [35S]GTPγS binding, Arg172Lys mutant fusion protein; assay type: biochemical
# T3 construct: Cys352Ile Gαi2 (fusion partner, same polypeptide); expressed in transfected cells; host or cells: membranes of Flp-In T-REx 293 cells, doxycycline-induced
# [6] = biological target: T4, FLAG-Arg^174Ala hGPR84-eYFP (Homo sapiens, UniProt Q9NQS5, R174A); test: [35S]GTPγS binding, Arg174Ala mutant receptor; assay type: biochemical
# T4 construct: expressed in transfected cells; host or cells: membranes of Flp-In T-REx 293 cells, doxycycline-induced
# [7] = agonist 3a, modulator compound-1
# [8] = agonist compound-1, modulator 3a
# T2 sequence (Q9NQS5 2-396 R172A): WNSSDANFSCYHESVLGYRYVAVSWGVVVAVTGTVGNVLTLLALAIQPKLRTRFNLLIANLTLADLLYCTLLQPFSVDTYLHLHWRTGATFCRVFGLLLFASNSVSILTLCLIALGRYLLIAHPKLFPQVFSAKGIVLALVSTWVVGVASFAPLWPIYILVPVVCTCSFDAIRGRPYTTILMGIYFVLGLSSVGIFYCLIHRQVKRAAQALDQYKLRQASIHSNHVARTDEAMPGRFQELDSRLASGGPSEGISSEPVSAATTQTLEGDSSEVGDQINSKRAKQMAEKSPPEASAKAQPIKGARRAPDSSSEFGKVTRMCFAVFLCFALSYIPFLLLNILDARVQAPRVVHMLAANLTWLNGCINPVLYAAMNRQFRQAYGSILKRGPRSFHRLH
# T1 sequence (Q9NQS5 whole entry): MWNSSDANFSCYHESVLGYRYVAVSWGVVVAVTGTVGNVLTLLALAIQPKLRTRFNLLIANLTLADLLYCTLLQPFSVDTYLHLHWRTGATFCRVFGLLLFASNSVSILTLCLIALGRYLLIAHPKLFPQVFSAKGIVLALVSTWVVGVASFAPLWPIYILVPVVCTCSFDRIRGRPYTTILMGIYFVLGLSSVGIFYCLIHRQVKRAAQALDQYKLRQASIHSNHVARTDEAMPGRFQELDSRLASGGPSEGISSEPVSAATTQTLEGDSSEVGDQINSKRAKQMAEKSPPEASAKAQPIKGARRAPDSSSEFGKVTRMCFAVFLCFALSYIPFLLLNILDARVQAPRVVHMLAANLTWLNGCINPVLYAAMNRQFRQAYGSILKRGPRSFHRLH
# Chain of GPR84-Cys^352Ile Gαi2 fusion protein (Q9NQS5 whole entry, the tested form may be a part): as the sequence (Q9NQS5 whole entry) above
# Chain of GPR84-Cys^352Ile Gαi2 fusion protein (P04899 2-355 C352I, further chain): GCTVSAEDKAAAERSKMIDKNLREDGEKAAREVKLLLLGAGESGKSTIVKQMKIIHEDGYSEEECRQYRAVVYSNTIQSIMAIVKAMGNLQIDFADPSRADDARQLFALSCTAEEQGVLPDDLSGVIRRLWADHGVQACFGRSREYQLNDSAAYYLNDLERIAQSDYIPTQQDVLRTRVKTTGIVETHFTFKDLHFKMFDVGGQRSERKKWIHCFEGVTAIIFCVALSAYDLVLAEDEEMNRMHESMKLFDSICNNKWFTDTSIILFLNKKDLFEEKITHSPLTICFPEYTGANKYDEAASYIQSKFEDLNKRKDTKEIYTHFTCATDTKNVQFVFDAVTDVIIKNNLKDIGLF
# T3 sequence (Q9NQS5 2-396 R172K): as the sequence (Q9NQS5 2-396 R172A) above, with A171K counted along it
# T4 sequence (Q9NQS5 whole entry R174A): as the sequence (Q9NQS5 whole entry) above, with R174A counted along it
molecule,measurement,setting,value
"2-((S)-1-[1,4]dioxan-2-ylmethoxy)-9-(tetrahydro-pyran-4-yl-methoxymethyl)-6,7-dihydro-pyrimido[6,1-a]isoquinolin-4-one [Compound 161]","ability to limit [35S]GTPγS binding induced by EC80 concentrations of C10 (50 μM), embelin (3 μM) and DIM (5 μM)",[1],in a concentration-dependent fashion
COc1ccc2[nH]cc(Cc3c[nH]c4ccc(OC)cc34)c2c1 [3a],"direct agonism of GPR84, [35S]GTPγS binding",[2],direct agonism
same,allosteric effect on concentration-response curves of orthosteric agonists incl. compound-1,[2],as large positive allosteric effects on the potency of the orthosteric agonist ligands as did DIM
same,logα,[3]; [7],1.43 ± 0.08
same,logβ,[3]; [7],1.2 ± 0.06
same,Kd,"[3]; pKA (estimated for the agonist), agonist 3a, modulator compound-1",14.8 µM
same,Kb,"[3]; pKB (estimated for the modulator), modulator 3a, agonist compound-1",10 µM
COc1ccc2[nH]cc(C(c3ccc(C)cc3)c3c[nH]c4ccc(OC)cc34)c2c1 [3b],"direct agonism of GPR84, [35S]GTPγS binding",[2],inactive
COc1ccc2[nH]cc(C(c3cc(F)cc(F)c3)c3c[nH]c4ccc(OC)cc34)c2c1 [3c],"affinity for GPR84 (words, inferred from functional data)",[2],lack affinity
same,"direct agonism of GPR84, [35S]GTPγS binding",[2],inactive
same,allosteric effect on concentration-response curves of orthosteric agonists incl. compound-1,[2],unable to effect the position of the concentration-response curves
O=[N+]([O-])c1ccc2[nH]cc(Cc3c[nH]c4ccc([N+](=O)[O-])cc34)c2c1 [6a],"direct agonism of GPR84, [35S]GTPγS binding",[2],direct agonism
"O=c1nc(OCC2COCCO2)cc2n1CCc1cc(C#CCNc3ccccc3)ccc1-2 (stereo not shown) [Compound 107, 2-([1,4]dioxan-2-ylmethoxy)-9-(3-phenylamino-prop-1-ynyl)-6,7-dihydro-pyrimido[6,1-a]isoquinolin-4-one]","potency to block DIM-stimulated [35S]GTPγS binding, Arg172Ala versus GPR84-Cys352Ile Gαi2 fusion",[4],equal potency
same,"ability to limit [35S]GTPγS binding induced by EC80 concentrations of C10 (50 μM), embelin (3 μM) and DIM (5 μM)",[1],more potent than 161
same,mode of blockade of DIM agonism,[1]; higher antagonist concentrations reduced maximal effect of DIM,non-competitive mode of blockade
same,mode of blockade of embelin effects,[1]; increasing concentrations of antagonist decreased maximal effect of embelin,non-competitive manner
"CCCCCCSc1nc(O)cc(O)n1 [compound-1, 2-(hexylthiol)pyridimine-4,6 diol]",agonist response at Arg172Ala mutant,[4],no response
same,agonist response at Arg172Lys mutant,[5],eliminated response
same,effect of Arg174Ala mutation on agonist function or potency,[6],did not affect function or potency
same,measured potency compared between GPR84-Gαi2 and GPR84-Cys352Ile Gαi2 fusion constructs,[3],indistinguishable
same,logα,[3]; [8],1.75 ± 0.05
same,logβ,[3]; [8],-0.1 ± 0.02
same,logβ,"[3]; agonist compound-1, modulator DIM",-0.2 ± 0.05
same,logα,"[3]; agonist compound-1, modulator DIM, operational model of allosterism",2.1 ± 0.07
"CCCCCCCCCCCC1=C(O)C(=O)C=C(O)C1=O [embelin, 2,5-dihydroxy-3-undecyl-2,5-cyclohexadiene-1,4-dione]",agonist response at Arg172Ala mutant,[4],no response
same,agonist response at Arg172Lys mutant,[5],eliminated response
same,effect of Arg174Ala mutation on agonist function or potency,[6],did not affect function or potency
same,measured potency compared between GPR84-Gαi2 and GPR84-Cys352Ile Gαi2 fusion constructs,[3],indistinguishable
same,logα,"[3]; agonist embelin, modulator DIM",1.22 ± 0.05
same,logβ,"[3]; agonist embelin, modulator DIM",0.8 ± 0.02
CCCCCCCCCC(=O)OC [methyl decanoate],"agonist activity, [35S]GTPγS binding",[1]; membranes of doxycycline-induced cells,completely inactive

# From paper PMC5738391, “Three classes of ligands each bind to distinct sites on the orphan G protein-coupled receptor GPR84” (Scientific Reports, 2017)
